Results from patent US9867833B2, “Serine/threonine kinase inhibitors” (GENENTECH, INC., priority 2013, dated 2018).

target: human ERK-2 (Mitogen Activated Kinase 1) (Homo sapiens (Human), UniProt P28482); test: ERK-2 Enzymatic Assay; type: biochemical; details: human ERK-2 enzyme 5 nM, 25 μM ATP, S/T17 peptide substrate; isomer = configuration of CR2R3
Procedure: Compounds were tested in an enzymatic assay using human ERK-2 (Mitogen Activated Kinase 1), recombinantly expressed as an n-terminal 6-His fusion protein in E. coli and corresponding to aa 8-360. […] Test compounds were diluted in DMSO in 3-fold serial dilutions at 100× final concentrations. […] The data collected from each well was fit to a straight line, and the resulting rates were used to calculate percent of control. Percent of control was plotted against compound concentration, and IC50 values were determined using a four-parameter fit.

human ERK-2 (Mitogen Activated Kinase 1), sequence (P28482 8-360): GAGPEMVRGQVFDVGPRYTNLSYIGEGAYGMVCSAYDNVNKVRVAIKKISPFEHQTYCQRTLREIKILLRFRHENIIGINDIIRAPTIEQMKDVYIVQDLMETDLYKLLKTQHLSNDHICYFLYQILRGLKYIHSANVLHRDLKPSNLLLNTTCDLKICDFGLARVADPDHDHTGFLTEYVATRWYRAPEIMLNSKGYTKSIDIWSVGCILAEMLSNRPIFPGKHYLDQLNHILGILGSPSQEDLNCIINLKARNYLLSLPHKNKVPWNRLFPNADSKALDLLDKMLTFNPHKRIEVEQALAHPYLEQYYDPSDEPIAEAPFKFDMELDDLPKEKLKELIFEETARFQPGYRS

| Structure (SMILES) | IC50 |
| --- | --- |
| Cn1nccc1Nc1nccc(-c2cc3n4c(nnc4c2)[C@H](Oc2cncc(F)c2)CCO3)n1 [(R) I-91, 4-(9-((5-fluoropyridin-3-yl)oxy)-8,9-dihydro-7H-6-oxa-1,2,2a^1-triazabenzo[cd]azulen-4-yl)-N-(1-methyl-1H-pyrazol-5-yl)pyrimidin-2-amine] | 25.8 nM |
| Cc1cc(C[C@H]2CCOc3cc(-c4ccnc(Nc5ccnn5C)n4)cc4nnc2n34)on1 [(R) I-93, N-(1-methyl-1H-pyrazol-5-yl)-4-(9-((3-methylisoxazol-5-yl)methyl)-8,9-dihydro-7H-6-oxa-1,2,2a^1-triazabenzo[cd]azulen-4-yl)pyrimidin-2-amine] | < 0.02 nM |
| COc1cccc(C[C@H]2COc3cc(-c4ccnc(Nc5ccnn5C)c4)cc4nnc2n34)c1 [(R) I-97, 4-(3-(3-methoxybenzyl)-3,4-dihydro-5-oxa-1,2,2a^1-triazaacenaphthylen-7-yl)-N-(1-methyl-1H-pyrazol-5-yl)pyridin-2-amine] | < 0.02 nM |
| Cn1nccc1Nc1nccc(-c2cc3n4c(nnc4c2)[C@H](CCC(F)(F)F)CCO3)n1 [(R) I-102, N-(1-methyl-1H-pyrazol-5-yl)-4-(9-(3,3,3-trifluoropropyl)-8,9-dihydro-7H-6-oxa-1,2,2a^1-triazabenzo[cd]azulen-4-yl)pyrimidin-2-amine] | 1.7 nM |
| CCC[C@@H]1CCOc2cc(-c3ccnc(Nc4ccnn4C)c3)cc3nnc1n23 [(R) I-103, N-(1-methyl-1H-pyrazol-5-yl)-4-(9-propyl-8,9-dihydro-7H-6-oxa-1,2,2a^1-triazabenzo[cd]azulen-4-yl)pyridin-2-amine] | 2.77 nM |
| CCC[C@@H]1CCOc2cc(-c3ccnc(Nc4ccnn4C)n3)cc3nnc1n23 [(R) I-104, N-(1-methyl-1H-pyrazol-5-yl)-4-(9-propyl-8,9-dihydro-7H-6-oxa-1,2,2a^1-triazabenzo[cd]azulen-4-yl)pyrimidin-2-amine] | 2.3 nM |
| CC(C)C[C@@H]1CCOc2cc(-c3ccnc(Nc4ccnn4C)n3)cc3nnc1n23 [(R) I-107, 4-(9-isobutyl-8,9-dihydro-7H-6-oxa-1,2,2a^1-triazabenzo[cd]azulen-4-yl)-N-(1-methyl-1H-pyrazol-5-yl)pyrimidin-2-amine] | 1.85 nM |
| Cn1nccc1Nc1nccc(-c2cc3n4c(nnc4c2)C(Oc2ccc(F)cc2)CCO3)n1 [(R) I-108, 4-(9-(4-fluorophenoxy)-8,9-dihydro-7H-6-oxa-1,2,2a^1-triazabenzo[cd]azulen-4-yl)-N-(1-methyl-1H-pyrazol-5-yl)pyrimidin-2-amine] | 2.95 nM |
| Cc1csc(C[C@H]2CCOc3cc(-c4ccnc(Nc5ccnn5C)n4)cc4nnc2n34)n1 [(R) I-109, N-(1-methyl-1H-pyrazol-5-yl)-4-(9-((4-methylthiazol-2-yl)methyl)-8,9-dihydro-7H-6-oxa-1,2,2a^1-triazabenzo[cd]azulen-4-yl)pyrimidin-2-amine] | < 0.02 nM |
| Clc1cnn(C[C@H]2CCOc3cc(-c4ccnc(NC5CCOCC5)n4)cc4nnc2n34)c1 [(R) I-110, 4-(9-((4-chloro-1H-pyrazol-1-yl)methyl)-8,9-dihydro-7H-6-oxa-1,2,2a^1-triazabenzo[cd]azulen-4-yl)-N-(tetrahydro-2H-pyran-4-yl)pyrimidin-2-amine] | < 0.02 nM |
| Cn1nccc1Nc1nccc(-c2cc3n4c(nnc4c2)[C@H](Oc2ccc(F)c(F)c2)CCO3)n1 [(R) I-111, 4-(9-(3,4-difluorophenoxy)-8,9-dihydro-7H-6-oxa-1,2,2a^1-triazabenzo[cd]azulen-4-yl)-N-(1-methyl-1H-pyrazol-5-yl)pyrimidin-2-amine] | 2.6 nM |
| Cn1nccc1Nc1nccc(-c2cc3n4c(nnc4c2)[C@@H](c2ccccc2)CN3)n1 [(S) I-1, N-(1-methyl-1H-pyrazol-5-yl)-4-(3-phenyl-4,5-dihydro-3H-1,2,2a^1,5-tetraazaacenaphthylen-7-yl)pyrimidin-2-amine] | 1.1 nM |
| Cn1nccc1Nc1nccc(-c2cc3n4c(nnc4c2)[C@@H](Cc2ccccc2)CN3)n1 [(S) I-2, (S)-4-(3-benzyl-4,5-dihydro-3H-1,2,2a^1,5-tetraazaacenaphthylen-7-yl)-N-(1-methyl-1H-pyrazol-5-yl)pyrimidin-2-amine] | 0.02 nM |
| Cn1nccc1Nc1nccc(-c2cc3n4c(nnc4c2)[C@@H](Cc2ccc(Cl)cc2)CN3)n1 [(S) I-5, 4-(3-(4-chlorobenzyl)-4,5-dihydro-3H-1,2,2a^1,5-tetraazaacenaphthylen-7-yl)-N-(1-methyl-1H-pyrazol-5-yl)pyrimidin-2-amine] | < 0.02 nM |
| Cn1nccc1Nc1cc(-c2cc3n4c(nnc4c2)[C@@H](Cc2ccccc2)CN3)ccn1 [(S) I-7, 4-(3-benzyl-4,5-dihydro-3H-1,2,2a^1,5-tetraazaacenaphthylen-7-yl)-N-(1-methyl-1H-pyrazol-5-yl)pyridin-2-amine] | < 0.02 nM |
| Cn1nccc1Nc1cc(-c2cc3n4c(ncc4c2)[C@@H](Cc2ccc(Cl)cc2)CN3)ccn1 [(S) I-8, 4-(3-(4-chlorobenzyl)-4,5-dihydro-3H-1,2,2a^1,5-tetraazaacenaphthylen-7-yl)-N-(1-methyl-1H-pyrazol-5-yl)pyridin-2-amine] | < 0.02 nM |
| CN1C[C@H](Cc2ccccc2)c2nnc3cc(-c4ccnc(Nc5ccnn5C)n4)cc1n23 [(S) I-9, 4-(3-benzyl-5-methyl-4,5-dihydro-3H-1,2,2a^1,5-tetraazaacenaphthylen-7-yl)-N-(1-methyl-1H-pyrazol-5-yl)pyrimidin-2-amine] | < 0.02 nM |
| CC(C)C[C@H]1CNc2cc(-c3ccnc(Nc4ccnn4C)n3)cc3nnc1n23 [(S) I-10, 4-(3-isobutyl-4,5-dihydro-3H-1,2,2a^1,5-tetraazaacenaphthylen-7-yl)-N-(1-methyl-1H-pyrazol-5-yl)pyrimidin-2-amine] | < 0.02 nM |
| COc1ccc(C[C@H]2CNc3cc(-c4ccnc(Nc5ccnn5C)n4)cc4nnc2n34)cc1 [(S) I-11, 4-(3-(4-methoxybenzyl)-4,5-dihydro-3H-1,2,2a^1,5-tetraazaacenaphthylen-7-yl)-N-(1-methyl-1H-pyrazol-5-yl)pyrimidin-2-amine] | < 0.02 nM |

More lines, now with the values ahead:

| IC50 | Structure (SMILES) |
| --- | --- |
| < 0.02 nM | COc1ccc(C[C@H]2CNc3cc(-c4ccnc(Nc5ccnn5C)n4)cc4nnc2n34)cc1F [(S) I-12, 4-(3-(3-fluoro-4-methoxybenzyl)-4,5-dihydro-3H-1,2,2a^1,5-tetraazaacenaphthylen-7-yl)-N-(1-methyl-1H-pyrazol-5-yl)pyrimidin-2-amine] |
| < 0.02 nM | Cn1nccc1Nc1nccc(-c2cc3n4c(nnc4c2)[C@@H](Cc2ccc(Cl)c(F)c2)CN3)n1 [(S) I-14, 4-(3-(4-chloro-3-fluorobenzyl)-4,5-dihydro-3H-1,2,2a^1,5-tetraazaacenaphthylen-7-yl)-N-(1-methyl-1H-pyrazol-5-yl)pyrimidin-2-amine] |
| 2.24 nM | Cn1nccc1Nc1nccc(-c2cc3n4c(nnc4c2)[C@H](Cc2ccccc2)CO3)n1 [(S) I-15, 4-(3-benzyl-3,4-dihydro-5-oxa-1,2,2a^1-triazaacenaphthylen-7-yl)-N-(1-methyl-1H-pyrazol-5-yl)pyrimidin-2-amine] |
| 55.8 nM | COc1ccc(C[C@H]2CN(C)c3cc(-c4ccnc(Nc5ccnn5C)c4)cc4nnc2n34)cc1 [(S) I-18, 4-(3-(4-methoxybenzyl)-5-methyl-4,5-dihydro-3H-1,2,2a^1,5-tetraazaacenaphthylen-7-yl)-N-(1-methyl-1H-pyrazol-5-yl)pyridin-2-amine] |
| 0.316 nM | CC(C)C[C@H]1CN(C)c2cc(-c3ccnc(Nc4ccnn4C)c3)cc3nnc1n23 [(S) I-20, 4-(3-isobutyl-5-methyl-4,5-dihydro-3H-1,2,2a^1,5-tetraazaacenaphthylen-7-yl)-N-(1-methyl-1H-pyrazol-5-yl)pyridin-2-amine] |
| < 0.02 nM | Cn1nccc1Nc1nccc(-c2cc3n4c(nnc4c2)[C@@H](Cc2ccc(F)cc2)CN3)n1 [(S) I-21, 4-(3-(4-fluorobenzyl)-4,5-dihydro-3H-1,2,2a^1,5-tetraazaacenaphthylen-7-yl)-N-(1-methyl-1H-pyrazol-5-yl)pyrimidin-2-amine] |
| < 0.02 nM | CN1C(=O)C[C@H](Cc2ccc(Cl)cc2)c2nnc3cc(-c4ccnc(Nc5ccnn5C)n4)cc1n23 [(S) I-22, 9-(4-chlorobenzyl)-6-methyl-4-(2-((1-methyl-1H-pyrazol-5-yl)amino)pyrimidin-4-yl)-8,9-dihydro-1,2,2a^1,6-tetraazabenzo[cd]azulen-7(6H)-one] |
| < 0.02 nM | COc1ccc(C[C@H]2CNc3cc(-c4ccnc(Nc5ccnn5C)n4)cc4nnc2n34)cn1 [(S) I-24, 4-(3-((6-methoxypyridin-3-yl)methyl)-4,5-dihydro-3H-1,2,2a^1,5-tetraazaacenaphthylen-7-yl)-N-(1-methyl-1H-pyrazol-5-yl)pyrimidin-2-amine] |
| < 0.02 nM | Cn1nccc1Nc1nccc(-c2cc3n4c(nnc4c2)[C@@H](COCc2ccccc2)CCO3)n1 [(S) I-29, 4-(9-((benzyloxy)methyl)-8,9-dihydro-7H-6-oxa-1,2,2a^1-triazabenzo[cd]azulen-4-yl)-N-(1-methyl-1H-pyrazol-5-yl)pyrimidin-2-amine] |
| < 0.02 nM | Cn1nccc1Nc1cc(-c2cc3n4c(nnc4c2)[C@@H](Cc2ccccc2Cl)CCO3)ccn1 [(S) I-30, 4-(9-(2-chlorobenzyl)-8,9-dihydro-7H-6-oxa-1,2,2a^1-triazabenzo[cd]azulen-4-yl)-N-(1-methyl-1H-pyrazol-5-yl)pyridin-2-amine] |
| < 0.02 nM | CN1C[C@H](Cc2ccc(F)cc2)c2nnc3cc(-c4ccnc(Nc5ccnn5C)n4)cc1n23 [(S) I-31, 4-(3-(4-fluorobenzyl)-5-methyl-4,5-dihydro-3H-1,2,2a^1,5-tetraazaacenaphthylen-7-yl)-N-(1-methyl-1H-pyrazol-5-yl)pyrimidin-2-amine] |
| < 0.02 nM | Cn1nccc1Nc1nccc(-c2cc3n4c(nnc4c2)[C@@H](Cc2ccc(Cl)cc2)CCO3)n1 [(S) I-36, 4-(9-(4-chlorobenzyl)-8,9-dihydro-7H-6-oxa-1,2,2a^1-triazabenzo[cd]azulen-4-yl)-N-(1-methyl-1H-pyrazol-5-yl)pyrimidin-2-amine] |
